“Also recorded” adds a separate entry of the source.
Legend:
AKR-2B cells = assay: Smad3-regulated biological responses: scratch assays and soft agar colony formation; format: cell-based; settings: FIGS. 4C and 4D: scratch assay (5 ng/mL TGFβ, 24 hours) and soft agar
Procedure: FIGS. 4A-E. A point mutant of TAT-SH3-2 abolishes the inhibitory action on Smad3 responses. (A) Schematic depicting TAT-SNX9(SH3) fusion polypeptide constructs (Left). * in SH3-2M (mutant) reflects G to V mutations at amino acids 36-38. His pull down of pSmad3 bound to TAT-SNX9(SH3) fusion polypeptides was performed as in FIG. 3A (Middle). AKR-2B cells were transduced for 90 minutes with 1.5 μM of TAT-SH3-2, TAT-SH3-2M, or TAT-LC. Western analysis was performed for the indicated proteins following 24 hour treatment in the absence (−) or presence (+) of TGFβ (5 ng/mL) or SB431542 (10 μM) (Right). (B) qPCR of Smad3 (CTGF and Smad7) and Smad2 (Goosecoid and MixL) responsive genes as in FIG. 3D. Data reflect mean+/−sd from three experiments. […] (E) AKR-2B cells were transiently transfected with a BMP (BRE), EGF (SRE), or PDGF (MMP-1) reporter construct and luciferase activity determined following 12 hour incubation in the absence (−) or presence (+) of the indicated ligand (10 ng/mL BMP4, EGF, or PDGF), inhibitor (10 μM Dorsomophin; 3 μM Lapatinib; 2 μM CP868) or TAT-SNX9(SH3) fusion polypeptide (1.5 μM). […]
Soft agar assays were performed as described elsewhere (Rahimi et al., Cancer Res., 69(1):84-93 (2009)). […] Following 7 days growth at 37° C., the number of colonies>100 μm in diameter were counted using an Optronix Gelcount™ (Oxford Optronics, Milton, Abingdon, UK). […]

[1] = tested on: bleomycin (BLM)-induced lung fibrosis; assay: Treatment model of bleomycin (BLM)-induced lung fibrosis; format: in vivo, mice; settings: for interstitial fibronectin / lung histology: daily intraperitoneal 0.5 mg/kg from day 14, day 28; for BLM induction of profibrotic genes (collagen 1, connective tissue growth factor, fibronectin), qPCR of lung tissue / total collagen production induced by bleomycin (hydroxyproline content): daily intraperitoneal from day 14, day 28; for peripheral blood oxygen saturation (SpO2) / gas exchange: 2-week treatment interval from day 14
Procedure: FIGS. 5A-D. Bleomycin (BLM)-induced lung remodeling is attenuated by TAT-SH3-2. (A) Hematoxylin and Eosin (H&E), Masson's Trichrome (MT), or fibronectin (anti-fibronectin and Hematoxylin) staining of representative paraffin-embedded lung sections from Control (saline treated) or mice challenged with BLM for 28 days and treated daily with 0.5 mg/kg TAT-SH3-2 or TAT-SH3-2M beginning 14 days following initial BLM insult (×8). (B) qPCR of the indicated genes (Col1, collagen 1; CTGF, connective tissue growth factor; FN, fibronectin) in murine lung tissue harvested on day 28 from mice challenged with BLM (+) or saline (−) and treated daily with vehicle (−; methocel/saline) or the indicated amount (μg) of TAT-SH3-2 or TAT-SH3-2M as in (A). Data reflect mean+/−sd of n=4. (C) Mice were treated with saline or BLM as in (A) and on day 14 administered daily vehicle (−) or the indicated concentration of TAT peptide. Animals were sacrificed on day 28, and hydroxyproline content was determined as described herein. Data reflect mean+/−sd of n=3. *P<0.005, **P<0.002. (D) Mice were treated as in (C), and qPCR of the indicated genes (Col Iα1 (collagen Iα1); CTGF (connective tissue growth factor); and FN (fibronectin)) were assessed in lung tissue harvested on day 28. Data reflect mean+/−sd of n=5. *P<0.005, **P<0.001.
Time-dependent fluctuation of oxygen saturation (SpO2) levels (determined on room air) in mice challenged with BLM (or saline) for 28 days and treated 1×/day with vehicle (methocel/saline), 0.5 mg/kg of TAT-SH3-2 or TAT-SH3-2M beginning 14 days after initial BLM insult. Error bars reflect SEM from n=4. (B) Time-dependent fluctuation of oxygen saturation (SpO2) levels (determined on room air) in mice challenged with BLM (or saline) for 28 days and treated 1×/day with vehicle (methocel/saline) or the indicated concentration of TAT-SH3-2 or TAT-SH3-2M beginning 14 days after initial BLM insult. Error bars reflect mean+/−sd from n=5. *P<0.05, **P<0.01.
Female 18-20 g C57 black mice (Charles River Laboratories) were administered bleomycin (BLM; 0.075 U diluted in 50 μL 0.9% normal saline) or 50 μL 0.9% normal saline alone by tracheal instillation using an intratracheal aerosolized (Penn-century, Wyndmoor, Pa.) as described elsewhere (Andrianifahanana et al., FASEB J., 27(11):4444-54 (2013)). At this time, animals were shaved around the collar region to allow monitoring of dissolved oxygen levels (every 3rd day) on room air using a MouseOX collar clip monitoring system (Starr Life Science Corp. Oakmont, Pa.). TAT-SNX9(SH3) fusion polypeptides were solubilized with DMSO and prepared by thoroughly blending with Methocel (Sigma, Louis, Mo.) at a ratio of 1:7. Mice were treated daily by intraperitoneal injection (100 μL) of a TAT-SNX9(SH3) fusion polypeptide or an equal volume of methocel/saline beginning on day 14. On day 28, mice were euthanized, lungs were dissected, and samples were prepared for immunohistochemistry and other analyses as described elsewhere (Andrianifahanana et al., FASEB J., 27(11):4444-54 (2013); Daniels et al., J. Clin. Invest., 114:1308-16 (2004); and Wang et al., FASEB J., 19:1-11 (2005)).
The Hydroxyproline Assay Kit from Sigma (St. Louis, Mo.) was used to assess total lung collagen levels. Briefly, following sacrifice lung tissue was washed in PBS, and 30 mg homogenized in 300 μL water. One hundred μL samples were hydrolyzed in 12 M HCl, and duplicate 50 μL samples were analyzed according to the manufacturer's recommendations.

Row | Substance | Smad3-regulated biological responses (AKR-2B cells) | BLM-induced lung remodeling ([1]; FIG. 5 title) | loss of lung function (SpO2) ([1]; animals receiving the highest concentration, FIG. 6B) | interstitial fibronectin [1] | lung histology [1] | BLM induction of profibrotic genes (collagen 1, connective tissue growth factor, fibronectin), qPCR of lung tissue [1] | total collagen production induced by bleomycin (hydroxyproline content) [1] | peripheral blood oxygen saturation (SpO2) / gas exchange ([1]; room air) | peripheral blood oxygen saturation (SpO2) / gas exchange ([1]; room air, listed as TAT-SH-2) | decrease in SpO2 during the treatment regime ([1]; room air, FIG. 6B) [%]
1 | TAT-SH3-2: TAT-SNX9(SH3) fusion polypeptide having SNX9 amino acids 21-51 (31 mer) (TVNEGEIITITNPDVGGGWLEGRNIKGERGL; left off: small tags and cut ends) | inhibitory | attenuated | no additional loss of lung function | reduced interstitial fibronectin to essentially basal levels | improved lung histology | significantly reduced | dose-dependent dimunization in total collagen production | stabilized and/or improved gas exchange; also recorded: dose-dependent improvement in gas exchange | stabilizes lung gas exchange | 
2 | TAT-SH3-2M: TAT-SH3-2 with G to V point mutations at amino acids 36-38; inactive TAT-SNX9 peptide unable to bind pSmad3 (TVNEGEIITITNPDVVVVWLEGRNIKGERGL; left off: small tags and cut ends) | not inhibitory |  |  | ineffective | ineffective | but not TAT-SH3-2M, significantly reduced | ineffective | analogous decline in SpO2 |  | ~25

— US10144929B2, “Polypeptide inhibitors of Smad3 polypeptide activities” (Mayo Foundation for Medical Education and Research, priority 2016, dated 2018)
